From ChEMBL document CHEMBL3091427, “The discovery of the benzazepine class of histamine H3 receptor antagonists” (Bioorg Med Chem Lett, 2013)

What was measured:
Histamine H3 receptor [1] = target: Histamine H3 receptor (Homo sapiens, UniProt Q9Y5N1); assay: Antagonist activity at human histamine H3 receptor expressed in CHOK1 cells assessed as inhibition of GTPgammaS binding by scintillation proximity assay; assay type: functional, cell-based, CHO-K1
Cytochrome P450 2D6 = Cytochrome P450 2D6 (Homo sapiens, UniProt P10635); assay: Inhibition of human CYP2D6; assay type: ADME
Liver microsome [2] = assay: Intrinsic clearance in rat liver microsomes; assay type: ADME
Liver microsome [3] = assay: Intrinsic clearance in human liver microsomes; assay type: ADME
Rattus norvegicus [4] = assay: Reversal of RAMH-induced dipsogenia in Lister Hooded rat at 3 mg/kg, po; assay type: functional
[5] = Volume of distribution at steady state in iv dosed rat after 1 hr; assay type: ADME, organism-based; details: in vivo, read-out: Vdss
Rattus norvegicus [6] = assay: Ex vivo binding affinity to histamine H3 receptor in po dosed Lister Hooded rat; assay type: functional
[7] = Ratio of drug level in brain to blood in Lister Hooded rat at 3 mg/kg, po after 2 hrs; assay type: ADME, organism-based; design: dose 3 mg/kg, route oral
[8] = Drug level in Lister Hooded rat blood at 3 mg/kg, po after 2 hrs; assay type: ADME, organism-based; design: dose 3 mg/kg, route oral; details: whole blood, read-out: Ct
[9] = Dissociation constant, pKa of the compound; assay type: physicochemical
[10] = Terminal half life in iv dosed rat after 0.5 hrs; assay type: ADME, organism-based; details: in vivo, read-out: beta t1/2 (converted)
[11] = Total blood clearance in iv dosed rat after 1 hr; assay type: ADME, organism-based; details: whole blood
hERG (KCNH2) = hERG (KCNH2) (Homo sapiens, UniProt Q12809); assay: Inhibition of human ERG at 10 uM by patch clamp assay
[12] = Lipophilicity, log D of the compound; assay type: physicochemical; details: octanol/water
[13] = Drug level in Lister Hooded rat brain at 3 mg/kg, po after 2 hrs; assay type: ADME, organism-based; design: dose 3 mg/kg, route oral; details: read-out: Ct
Histamine H3 receptor [14] = target: Histamine H3 receptor (Rattus norvegicus, UniProt Q9QYN8); assay: Displacement of [3H]R-alpha-methylhistamine from histamine H3 receptor in rat cerebral cortical membranes after 45 mins by liquid scintillation spectrometry; assay type: cell membranes
Albumin = Albumin (Homo sapiens, UniProt P02768); assay: Binding affinity to human serum albumin; assay type: ADME; details: isolated protein
Histamine H1 receptor = Histamine H1 receptor (Homo sapiens, UniProt P35367); assay: Antagonist activity at human recombinant histamine H1 receptor expressed in CHO cells assessed as inhibition of histamine-induced effect by FLIPR assay; assay type: cell-based
Rattus norvegicus [15] = assay: Reversal of RAMH-induced dipsogenia in Lister Hooded rat at 10 mg/kg, ip; assay type: functional; details: route intraperitoneal

Histamine H3 receptor (Homo sapiens, UniProt Q9Y5N1), sequence (Q9Y5N1 whole entry): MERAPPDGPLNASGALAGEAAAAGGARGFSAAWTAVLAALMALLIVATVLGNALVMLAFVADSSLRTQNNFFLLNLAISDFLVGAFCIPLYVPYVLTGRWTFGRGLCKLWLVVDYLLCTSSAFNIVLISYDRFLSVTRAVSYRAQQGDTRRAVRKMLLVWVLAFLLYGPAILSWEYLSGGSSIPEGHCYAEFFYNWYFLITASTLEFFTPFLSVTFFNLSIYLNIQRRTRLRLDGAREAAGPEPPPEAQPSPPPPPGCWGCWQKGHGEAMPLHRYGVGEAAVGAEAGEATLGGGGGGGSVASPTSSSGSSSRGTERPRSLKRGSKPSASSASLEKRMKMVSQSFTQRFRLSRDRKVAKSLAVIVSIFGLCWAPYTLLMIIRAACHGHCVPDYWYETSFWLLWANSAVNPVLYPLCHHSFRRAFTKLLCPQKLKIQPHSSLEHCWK
Histamine H1 receptor, sequence (P35367 whole entry): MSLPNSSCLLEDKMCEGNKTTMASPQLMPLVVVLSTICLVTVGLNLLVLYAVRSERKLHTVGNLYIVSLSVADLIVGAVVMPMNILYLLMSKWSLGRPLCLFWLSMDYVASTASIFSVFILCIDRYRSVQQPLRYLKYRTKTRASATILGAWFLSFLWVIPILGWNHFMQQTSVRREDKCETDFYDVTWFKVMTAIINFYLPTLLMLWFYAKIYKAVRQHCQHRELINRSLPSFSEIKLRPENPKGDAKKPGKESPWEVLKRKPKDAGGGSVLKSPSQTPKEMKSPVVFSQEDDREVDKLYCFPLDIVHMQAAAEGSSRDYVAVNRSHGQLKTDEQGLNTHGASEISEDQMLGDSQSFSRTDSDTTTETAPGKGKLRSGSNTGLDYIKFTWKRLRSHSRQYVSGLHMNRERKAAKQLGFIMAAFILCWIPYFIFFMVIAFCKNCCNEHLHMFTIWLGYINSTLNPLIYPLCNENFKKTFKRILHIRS
Albumin, sequence (P02768 whole entry): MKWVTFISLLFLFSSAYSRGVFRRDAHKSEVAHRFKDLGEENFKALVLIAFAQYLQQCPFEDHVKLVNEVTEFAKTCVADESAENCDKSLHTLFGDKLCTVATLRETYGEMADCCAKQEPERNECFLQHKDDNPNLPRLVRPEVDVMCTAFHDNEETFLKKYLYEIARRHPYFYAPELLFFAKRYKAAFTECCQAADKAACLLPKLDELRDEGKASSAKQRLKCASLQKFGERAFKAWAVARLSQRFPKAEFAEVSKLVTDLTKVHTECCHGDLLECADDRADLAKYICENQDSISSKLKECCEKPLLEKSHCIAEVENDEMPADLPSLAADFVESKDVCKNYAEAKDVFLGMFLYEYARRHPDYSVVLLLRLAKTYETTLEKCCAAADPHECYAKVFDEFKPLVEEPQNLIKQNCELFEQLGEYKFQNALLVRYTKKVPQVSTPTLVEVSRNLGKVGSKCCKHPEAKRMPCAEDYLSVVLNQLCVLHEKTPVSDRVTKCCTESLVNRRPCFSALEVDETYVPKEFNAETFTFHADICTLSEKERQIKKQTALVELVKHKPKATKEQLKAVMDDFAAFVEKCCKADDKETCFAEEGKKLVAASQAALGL
Cytochrome P450 2D6, sequence (P10635 whole entry): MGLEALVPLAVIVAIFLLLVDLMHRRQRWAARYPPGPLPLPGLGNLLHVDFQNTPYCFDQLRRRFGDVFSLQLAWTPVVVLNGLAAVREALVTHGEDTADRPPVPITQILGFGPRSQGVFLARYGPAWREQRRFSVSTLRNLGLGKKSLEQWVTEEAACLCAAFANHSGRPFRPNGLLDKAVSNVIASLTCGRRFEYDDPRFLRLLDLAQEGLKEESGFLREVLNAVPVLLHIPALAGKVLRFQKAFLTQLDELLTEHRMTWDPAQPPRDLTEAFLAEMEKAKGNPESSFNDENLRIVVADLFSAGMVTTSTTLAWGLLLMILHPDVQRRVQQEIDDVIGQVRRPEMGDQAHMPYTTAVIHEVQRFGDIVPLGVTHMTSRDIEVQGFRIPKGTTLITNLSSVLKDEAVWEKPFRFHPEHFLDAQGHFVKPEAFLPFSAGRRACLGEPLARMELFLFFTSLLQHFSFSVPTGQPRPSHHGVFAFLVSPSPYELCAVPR
Histamine H3 receptor (Rattus norvegicus, UniProt Q9QYN8), sequence (Q9QYN8 whole entry): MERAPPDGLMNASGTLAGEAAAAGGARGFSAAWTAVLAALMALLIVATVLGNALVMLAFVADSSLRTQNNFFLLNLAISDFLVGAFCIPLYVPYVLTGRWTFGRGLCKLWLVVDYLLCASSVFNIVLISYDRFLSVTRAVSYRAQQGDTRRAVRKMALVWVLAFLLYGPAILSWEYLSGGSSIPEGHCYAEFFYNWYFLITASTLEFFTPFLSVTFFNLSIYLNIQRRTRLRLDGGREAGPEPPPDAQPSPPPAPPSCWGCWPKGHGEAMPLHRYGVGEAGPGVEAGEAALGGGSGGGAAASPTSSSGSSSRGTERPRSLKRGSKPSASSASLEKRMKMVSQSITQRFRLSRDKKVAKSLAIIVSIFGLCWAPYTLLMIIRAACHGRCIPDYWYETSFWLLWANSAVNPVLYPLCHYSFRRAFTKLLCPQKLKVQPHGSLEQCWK
hERG (KCNH2), sequence (Q12809 whole entry): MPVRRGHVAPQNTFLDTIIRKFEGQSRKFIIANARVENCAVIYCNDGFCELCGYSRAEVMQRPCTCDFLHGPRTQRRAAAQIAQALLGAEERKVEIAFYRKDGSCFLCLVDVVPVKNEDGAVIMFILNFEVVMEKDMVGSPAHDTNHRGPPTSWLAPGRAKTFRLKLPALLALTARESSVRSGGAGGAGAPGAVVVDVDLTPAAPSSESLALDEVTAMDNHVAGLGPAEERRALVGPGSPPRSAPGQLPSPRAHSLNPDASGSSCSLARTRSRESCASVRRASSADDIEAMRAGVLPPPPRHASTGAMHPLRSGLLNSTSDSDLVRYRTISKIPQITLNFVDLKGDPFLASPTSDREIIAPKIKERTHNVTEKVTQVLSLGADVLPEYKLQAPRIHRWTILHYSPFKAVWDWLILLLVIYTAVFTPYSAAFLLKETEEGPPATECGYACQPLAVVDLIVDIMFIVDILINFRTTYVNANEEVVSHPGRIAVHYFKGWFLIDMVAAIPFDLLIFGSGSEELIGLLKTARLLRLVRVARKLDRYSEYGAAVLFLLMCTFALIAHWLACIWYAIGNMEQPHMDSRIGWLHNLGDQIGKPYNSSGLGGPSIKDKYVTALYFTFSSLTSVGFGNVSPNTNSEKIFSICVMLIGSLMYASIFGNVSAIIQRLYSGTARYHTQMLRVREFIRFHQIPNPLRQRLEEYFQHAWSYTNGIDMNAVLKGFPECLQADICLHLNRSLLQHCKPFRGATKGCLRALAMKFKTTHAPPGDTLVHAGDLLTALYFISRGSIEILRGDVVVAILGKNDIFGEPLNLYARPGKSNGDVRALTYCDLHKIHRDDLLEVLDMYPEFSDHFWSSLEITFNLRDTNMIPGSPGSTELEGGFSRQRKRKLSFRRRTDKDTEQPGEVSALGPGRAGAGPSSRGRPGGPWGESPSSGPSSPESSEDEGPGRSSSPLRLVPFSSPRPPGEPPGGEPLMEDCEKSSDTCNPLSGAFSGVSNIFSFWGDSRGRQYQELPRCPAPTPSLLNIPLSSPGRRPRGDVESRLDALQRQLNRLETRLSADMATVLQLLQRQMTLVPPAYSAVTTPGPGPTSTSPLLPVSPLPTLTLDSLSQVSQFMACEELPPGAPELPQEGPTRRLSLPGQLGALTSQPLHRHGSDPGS

Row | Ki (Histamine H3 receptor [1]) | CLH (Liver microsome [2]) | CLH (Liver microsome [3]) | SMILES | other results
1 | 15.8 nM | – | – | CC(=O)N1CCc2ccc(OCCCN3CCCCC3)cc2CC1 | –
2 | 1 nM | 1.1 mL/min/g | 0.9 mL/min/g | O=C(N1CCOCC1)N1CCC(Oc2ccc3c(c2)CCN(C2CCC2)CC3)CC1 | Activity (Rattus norvegicus [4]): 100%; Vd [5]: 4.6 L/kg; ED50 (Rattus norvegicus [6]): 2.2 mg/kg; Kp at 2 h [7]: 1.1; concentration at 2 h [8]: 470 nM; pKa [9]: 9.2; half-life [10]: 1.2 h; clearance [11]: 63 mL/min/kg; inhibition at 10 µM (hERG (KCNH2)): < 30%; logD [12]: 2.2; concentration at 2 h [13]: 530 nM; Ki (Histamine H3 receptor [14]): 12.6 nM; Activity (Albumin): 49%
3 | > 1000 nM | – | – | c1ccc(COc2ccc3c(c2)CCN(Cc2ccccc2)CC3)cc1 | –
4 | 10 nM | – | – | c1ccc(COc2ccc3c(c2)CCN(C2CCCCC2)CC3)cc1 | –
5 | 0.398 nM | 2.5 mL/min/g | 3.4 mL/min/g | Cn1c(=O)ccc2cc(COc3ccc4c(c3)CCN(C3CCC3)CC4)ccc21 | IC50 (Cytochrome P450 2D6): 4200 nM
6 | 0.501 nM | 0.7 mL/min/g | 0.9 mL/min/g | c1cc2c(cc1OCC1CCNCC1)CCN(C1CCC1)CC2 | Activity (Rattus norvegicus [4]): 44%; IC50 (Cytochrome P450 2D6): 19000 nM
7 | 0.316 nM | 1.2 mL/min/g | 0.5 mL/min/g | c1cc2c(cc1OC1CCNCC1)CCN(C1CCC1)CC2 | –
8 | 0.794 nM | 2.9 mL/min/g | 0.5 mL/min/g | CS(=O)(=O)N1CCC(Oc2ccc3c(c2)CCN(C2CCC2)CC3)CC1 | Activity (Rattus norvegicus [4]): 6%; IC50 (Cytochrome P450 2D6): 13000 nM
9 | 0.501 nM | 2.9 mL/min/g | 0.8 mL/min/g | O=C(c1ccc(Cl)cc1)N1CCC(Oc2ccc3c(c2)CCN(C2CCC2)CC3)CC1 | Activity (Rattus norvegicus [4]): 89%
10 | 1.58 nM | 3.5 mL/min/g | 1.2 mL/min/g | Cc1cc(C(=O)N2CCC(Oc3ccc4c(c3)CCN(C3CCC3)CC4)CC2)no1 | Activity (Rattus norvegicus [4]): 11%; IC50 (Cytochrome P450 2D6): 43000 nM
11 | 0.0251 nM | – | – | O=C(N[C@H]1CCN(Cc2ccc(OCCCN3CCCCC3)cc2)C1)c1ccc2c(c1)OCO2 | Ki (Histamine H1 receptor): > 2510 nM; Activity (Rattus norvegicus [15]): 78%; Activity (Albumin): 96%
12 | 15.8 nM | – | – | c1cc2c(cc1OCCCN1CCCCC1)CCN2 | –
13 | > 398 nM | – | – | FC1(F)CCN(CCCOc2ccc3c(c2)CCNCC3)CC1 | –
14 | 10 nM | – | – | c1ccc(N2CCc3ccc(OCCCN4CCCCC4)cc3CC2)cc1 | Ki (Histamine H1 receptor): 1000 nM
15 | 0.501 nM | – | – | c1cc2c(cc1OCCCN1CCCCC1)CCN(CC1CC1)CC2 | Ki (Histamine H1 receptor): 2000 nM
16 | 0.501 nM | – | – | c1cc2c(cc1OCCCN1CCCCC1)CCN(CC1CCCO1)CC2 (centres undefined) | Ki (Histamine H1 receptor): 2000 nM
17 | 0.794 nM | – | – | c1cc2c(cc1OCCN1CCCCC1)CCN(CC1CC1)CC2 | Ki (Histamine H1 receptor): > 2000 nM

More lines, now with the values behind:

Row | SMILES | Ki (Histamine H3 receptor [1]) | CLH (Liver microsome [2]) | CLH (Liver microsome [3]) | other results
18 | c1cc2c(cc1OCCCN1CCCCC1)CCNC2 | 2.51 nM | – | – | –
19 | OC1CCN(CCCOc2ccc3c(c2)CCNCC3)CC1 | > 10000 nM | – | – | –
20 | c1ccc(COc2ccc3c(c2)CCN(C2CCC2)CC3)cc1 | 0.251 nM | > 50 mL/min/g | 12 mL/min/g | IC50 (Cytochrome P450 2D6): 600 nM
21 | c1ccc(COc2ccc3c(c2)CCN(CC2CC2)CC3)cc1 | 10 nM | > 50 mL/min/g | 11 mL/min/g | Ki (Histamine H1 receptor): 1000 nM; IC50 (Cytochrome P450 2D6): 1500 nM
22 | CN1CCc2ccc(OCc3ccccc3)cc2CC1 | 316 nM | – | – | –
23 | CC(C)CN1CCc2ccc(OCc3ccccc3)cc2CC1 | 25.1 nM | – | – | –
24 | CC(C)N1CCc2ccc(OCc3ccccc3)cc2CC1 | 20 nM | – | – | –
25 | c1ccc(COc2ccc3c(c2)CCN(C2CC2)CC3)cc1 | 5.01 nM | – | – | –
26 | c1ccc(COc2ccc3c(c2)CCN(C2CCCC2)CC3)cc1 | 0.794 nM | > 50 mL/min/g | 19 mL/min/g | IC50 (Cytochrome P450 2D6): 600 nM
27 | c1cc2c(cc1OCCCN1CCCCC1)CCNCC2 | 3.98 nM | – | – | Ki (Histamine H1 receptor): 1260 nM
28 | c1ccc(COc2ccc3c(c2)CCNCC3)cc1 | > 10000 nM | – | – | –
29 | CN(C)CCCOc1ccc2c(c1)CCNCC2 | 100 nM | – | – | –
30 | c1cc2c(cc1OCCCN1CCOCC1)CCNCC2 | 100 nM | – | – | –
31 | c1cc2c(cc1OCCN1CCCCC1)CCNCC2 | 158 nM | – | – | –
32 | CC(C)N1CCC(Oc2ccc3c(c2)CCNCC3)CC1 | 2.51 nM | – | – | Ki (Histamine H1 receptor): > 2510 nM
33 | O=C(c1ccc(OCCCc2cnc[nH]2)cc1)C1CC1 [CIPROXIFAN] | – | – | – | Ki (Histamine H1 receptor): > 2510 nM; Activity (Rattus norvegicus [4]): 100%; Activity (Albumin): 80%
